Measurements taken from patent publication US9422263B2, “Fluoro-substituted 3,5-dicyano-4-(1H-indazol-5-yl)-2,6-dimethyl-1,4-dihydropyridine derivatives and methods of use thereof” (BAYER PHARMA AKTIENGESELLSCHAFT, priority 2009, dated 2016).
Where two headings read alike, the source gives them in different places.

Legend:
[1] = target: Recombinant human c-Met protein (Homo sapiens (Human), UniProt P08581); test: c-Met receptor tyrosine kinase activity assay (NADH read-out); assay type: biochemical; conditions: ATP 30 μM, c-Met 30 nM
Experimental: c-Met Receptor Tyrosine Kinase Activity Assay (NADH Read-Out):
Recombinant human c-Met protein (Invitrogen, Carlsbad, Calif., USA) is used. As substrate for the kinase reaction the peptide KKKSPGEYVNIEFG (JPT, Germany) is used. For the assay, 1 μL of a 51-fold concentrated solution of the test compound in DMSO is pipetted into a white 384-well microtiter plate (Greiner Bio-One, Frickenhausen, Germany). 25 μL of a solution of c-Met (final concentration 30 nM) and pyruvate kinase/lactate dehydrogenase (Roche Diagnostics, Mannheim, Germany; final concentration 8 mg/L) in assay buffer [3-(N-morpholino)propanesulfonic acid (MOPS), 50 mM, pH 7; MgCl2, 10 mM; bovine serum albumin (BSA), 0.01%; Triton X 100, 0.01%; DTT, 2 mM] are added, and the mixture is incubated for 5 min at room temperature. Then, the kinase reaction is started by the addition of 25 μL of a solution of adenosine triphosphate (ATP, final concentration 30 μM), substrate (final concentration 100 μM), nicotinamide adenine dinucleo-tide (NADH, final concentration 50 μM) and dithiothreitol (DTT, final concentration 2 mM) in assay buffer, and the resulting mixture is incubated for a reaction time of 100 min at 32° C.
Subsequently, the amount of phosphorylated substrate is evaluated by measurement of the decrease of NADH fluorescence. Therefore, the fluorescence emissions at 465 nm after excitation at 340 nm is measured in a fluorescence reader, e.g. Tecan Ultra (Tecan, Männedorf, Switzerland). The data are normalised (enzyme reaction without inhibitor=0% inhibition; all other assay components but no enzyme=100% inhibition).

[2] = Caco-2 permeability assay; assay type: in vitro ADME; conditions: human, apical to basolateral, 2 h at 37° C.
Text: Caco-2 Permeability Assay:
The in vitro permeation of a test compound across a Caco-2 cell monolayer is a well-established assay system to predict the permeability from the gastro-intestinal tract [cf. P. Artursson and J. Karlsson: Correlation between oral drug absorption in humans and apparent drug permeability coefficients in human intestinal epithelial (Caco-2) cells, Biochem. Biophys. 175 (3), 880-885 (1991)]. The permeability of the compounds of the present invention in such Caco-2 cells was determined as described below:
Human caco-2 cells (ACC No. 169, DSMZ, German Collection of Microorganisms and Cell Cultures, Braunschweig, Germany) are seeded on 24-well insert plates and are allowed to grow for 14-16 days. For permeability studies, the test compounds are dissolved in DMSO and diluted to the final test concentration of 2 μM with transport buffer [Hanks' Buffered Salt Solution, Gibco/Invitrogen, further supplemented with glucose (final concentration 19.9 mM) and HEPES (final concentration 9.8 mM)]. For determination of the apical to basolateral permeability (PappA-B), the test compound solution is added to the apical side of the cell monolayer and transport buffer to the basolateral side of the monolayer; for determination of the basolateral to apical permeability (PappB-A), the test compound solution is added to the basolateral side of the cell monolayer and transport buffer to the apical side of the monolayer. Samples are taken from the donor compartment at the beginning of the experiment to confirm mass balance. After an incubation of 2 h at 37° C., samples are taken from both compartments. Samples are analyzed by LC-MS/MS, and the apparent permeability coefficients are calculated. Lucifer Yellow permeability is assayed for each cell monolayer to ensure cell monolayer integrity, and the permeability of Atenolol (low permeability marker) and Sulfasalazine (marker for active excretion) is determined for each batch as quality control.

[3] = Pharmacokinetics after intravenous administration of test compounds; assay type: in vivo, rat; conditions: for in vivo PK, rat i.v. CLblood: male Wistar rats, total blood clearance; for in vivo PK, rat i.v. Fmax, calc: Fmax,calc=[1−CLblood/Qh]*100, Qh 4.2 L per h per kg
Experimental: Pharmacokinetics after Intravenous Administration of Test Compounds: Male Wistar rats (Harlan Laboratories) are anesthetized and a catheter is inserted into the jugular vein of the rat. The next day, a defined dose of the test compound is administered as solution by injection into the tail vein. Blood samples are collected through the jugular catheter during the next 24 h (8-11 time points). Blood is centrifuged in heparin-tubes, and each plasma sample is treated with acetonitrile for protein precipitation. After centrifugation, the test compound in the supernatant is quantified using an LC-MS/MS method. The determined plasma concentrations are used for the calculation of pharmacokinetic parameters, such as AUC (area under the plasma concentration vs. time curve), Vss (volume of distribution under steady-state conditions), Cmax (highest test compound concentration observed in plasma following administration), t1/2 (half-life) and CL (total clearance of the test compound from the plasma). For the calculation of the blood clearance, the blood to plasma partitioning is determined by incubation of the test compound in blood of rats. After separation of the plasma by centrifugation, the concentration in the plasma is determined by an LC-MS/MS method. Under the assumption that the test compound is completely absorbed, the theoretically maximum achievable bioavailability Fmax,calc is calculated by the equation Fmax,calc=[1−CLblood/Qh]*100, wherein CLblood is the total blood clearance and Qh is the hepatic blood flow in rat of 4.2 L per h per kg.

[4] = Pharmacokinetics after peroral administration of test compounds; assay type: in vivo, rat; conditions: for in vivo PK, rat p.o. F / in vivo PK, rat p.o. AUCnorm: male Wistar rats; for in vivo PK, rat p.o. F: bioavailability; for in vivo PK, rat p.o. AUCnorm: dose and body weight-normalized AUC; for Fraction absorbed fabs, calc: rat p.o., fabs,calc=[F/Fmax,calc]*100
Experimental: Pharmacokinetics after Peroral Administration of Test Compounds: Male Wistar rats (Harlan Laboratories) are anesthetized and a catheter is inserted into the jugular vein of the rat. The next day, a defined dose of the test compound is administered perorally. Blood samples are collected through the jugular catheter during the next 24 h (8-11 time points). Blood is centrifuged in heparin-tubes, and each plasma sample is treated with acetonitrile for protein precipitation. After centrifugation, the test compound in the supernatant is quantified using an LC-MS/MS method. The determined plasma concentrations are used for the determination of pharmacokinetic parameters, such as AUC (area under the plasma concentration vs. time curve), Cmax (highest test compound concentration observed in plasma following administration), t1/2 (half-life) and F (bioavailability). The fraction of the dose absorbed (fabs,calc) is calculated by the equation fabs,calc=[F/Fmax,calc]*100, wherein F is the determined bioavailability after peroral administration and Fmax,calc is the theoretically maximum achievable bioavailability considering the determined blood clearance and assuming that the test compound is completely absorbed.

[5] = Table 4, read-out: Caco-2 permeability PappA-B
[6] = Table 3, read-out: Caco-2 permeability PappA-B

Chain of Recombinant human c-Met protein (P08581 25-1390): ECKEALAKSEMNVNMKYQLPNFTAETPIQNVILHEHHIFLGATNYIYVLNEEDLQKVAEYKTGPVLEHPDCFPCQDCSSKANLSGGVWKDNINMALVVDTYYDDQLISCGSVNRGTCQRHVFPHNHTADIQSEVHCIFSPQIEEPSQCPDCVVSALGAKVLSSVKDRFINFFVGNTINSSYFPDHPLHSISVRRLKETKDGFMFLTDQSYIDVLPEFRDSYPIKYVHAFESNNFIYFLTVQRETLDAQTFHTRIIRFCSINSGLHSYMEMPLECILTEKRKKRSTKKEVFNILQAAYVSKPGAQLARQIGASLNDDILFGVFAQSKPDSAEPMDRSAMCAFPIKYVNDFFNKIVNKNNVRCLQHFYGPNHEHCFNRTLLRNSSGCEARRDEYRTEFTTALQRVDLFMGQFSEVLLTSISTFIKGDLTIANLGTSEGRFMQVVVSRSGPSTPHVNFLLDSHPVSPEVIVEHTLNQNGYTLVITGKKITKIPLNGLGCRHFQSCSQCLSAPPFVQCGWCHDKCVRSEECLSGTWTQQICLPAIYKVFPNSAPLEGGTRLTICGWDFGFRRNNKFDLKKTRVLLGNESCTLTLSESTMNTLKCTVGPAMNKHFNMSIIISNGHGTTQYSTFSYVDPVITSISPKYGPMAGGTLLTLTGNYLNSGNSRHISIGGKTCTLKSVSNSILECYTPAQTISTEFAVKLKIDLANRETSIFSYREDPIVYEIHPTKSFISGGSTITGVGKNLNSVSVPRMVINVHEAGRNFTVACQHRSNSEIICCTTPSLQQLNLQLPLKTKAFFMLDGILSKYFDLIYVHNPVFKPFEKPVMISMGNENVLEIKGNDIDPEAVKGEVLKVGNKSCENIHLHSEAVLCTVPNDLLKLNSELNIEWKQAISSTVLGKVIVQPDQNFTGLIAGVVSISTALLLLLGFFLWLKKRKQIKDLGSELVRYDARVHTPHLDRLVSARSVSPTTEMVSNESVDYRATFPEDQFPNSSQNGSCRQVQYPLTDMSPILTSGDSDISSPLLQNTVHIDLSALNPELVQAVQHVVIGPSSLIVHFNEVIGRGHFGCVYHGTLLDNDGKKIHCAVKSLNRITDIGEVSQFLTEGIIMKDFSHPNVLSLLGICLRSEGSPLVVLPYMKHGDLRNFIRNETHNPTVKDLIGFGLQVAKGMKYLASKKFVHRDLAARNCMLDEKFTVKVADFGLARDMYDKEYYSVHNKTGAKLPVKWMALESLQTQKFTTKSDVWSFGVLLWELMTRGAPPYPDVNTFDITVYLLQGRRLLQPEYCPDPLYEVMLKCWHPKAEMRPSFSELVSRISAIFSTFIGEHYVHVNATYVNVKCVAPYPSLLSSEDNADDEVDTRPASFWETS

Row | SMILES | IC50 [1] | Papp at 2 h, 2 μM [2, 5] | in vivo PK, rat i.v. CLblood [3] | in vivo PK, rat i.v. Fmax, calc [3] | in vivo PK, rat p.o. F [4] | in vivo PK, rat p.o. AUCnorm [4] | Fraction absorbed fabs, calc [4] | Papp at 2 h, 2 μM [2, 6]
1 | CC1=C(C#N)C(c2ccc3[nH]nc(C)c3c2)C(C#N)=C(C(F)(F)F)N1 (single isomer, unassigned) [Example 5] | 12 nM |  |  |  |  |  |  | 
2 | Cc1n[nH]c2ccc(C3C(C#N)=C(C(F)(F)F)NC(C(F)(F)F)=C3C#N)cc12 [Example 26, 4-(3-Methyl-1H-indazol-5-yl)-2,6-bis(trifluoromethyl)-1,4-dihydropyridine-3,5-dicarbonitrile] |  | 34.8 ×10⁻⁶ cm/s |  |  |  |  |  | 
3 | CC1=C(C#N)C(c2cc3c(C)n[nH]c3cc2F)C(C#N)=C(C(F)F)N1 (racemic) [Example 7, rac-2-(Difluoromethyl)-4-(6-fluoro-3-methyl-1H-indazol-5-yl)-6-methyl-1,4-dihydropyridine-3,5-dicarbonitrile] |  |  | 26.7 mL/min/kg | 62% | 68% | 0.69 kg·h/L | 109% | 22 ×10⁻⁶ cm/s
4 | CC1=C(C#N)C(c2cc3cn[nH]c3cc2F)C(C#N)=C(C(F)F)N1 (single isomer, unassigned) [Example 17, 2-(Difluoromethyl)-4-(6-fluoro-1H-indazol-5-yl)-6-methyl-1,4-dihydropyridine-3,5-dicarbonitrile] | 11 nM |  |  |  |  |  |  | 
5 | N#CC1=C(C(F)F)NC(C(F)F)=C(C#N)C1c1ccc2[nH]ncc2c1 [Example 24, 2,6-Bis(difluoromethyl)-4-(1H-indazol-5-yl)-1,4-dihydropyridine-3,5-dicarbonitrile] | 28 nM | 20.2 ×10⁻⁶ cm/s |  |  |  |  |  | 
6 | CC1=C(C#N)C(c2ccc3[nH]nc(C)c3c2)C(C#N)=C(C(F)(F)F)N1C (single isomer, unassigned) [Example 44, 1,2-Dimethyl-4-(3-methyl-1H-indazol-5-yl)-6-(trifluoromethyl)-1,4-dihydropyridine-3,5-dicarbonitrile] | 8 nM |  |  |  |  |  |  | 
7 | CC1=C(C#N)C(c2cc3cn[nH]c3cc2F)C(C#N)=C(C(F)F)N1 (racemic) [Example 16, rac-2-(Difluoromethyl)-4-(6-fluoro-1H-indazol-5-yl)-6-methyl-1,4-dihydropyridine-3,5-dicarbonitrile] |  | 22.6 ×10⁻⁶ cm/s |  |  |  |  |  | 
8 | N#CC1=C(C(F)F)NC(C(F)F)=C(C#N)C1c1cc2cn[nH]c2cc1F [Example 15, 2,6-Bis(difluoromethyl)-4-(6-fluoro-1H-indazol-5-yl)-1,4-dihydropyridine-3,5-dicarbonitrile] |  |  | 3.83 mL/min/kg | 95% | 63% | 3.87 kg·h/L | 66% | 16.9 ×10⁻⁶ cm/s
9 | CC1=C(C#N)C(c2ccc3[nH]ncc3c2)C(C#N)=C(C(F)(F)F)N1 (racemic) [Example 20, rac-4-(1H-Indazol-5-yl)-2-methyl-6-(trifluoromethyl)-1,4-dihydropyridine-3,5-dicarbonitrile] | 27 nM | 20 ×10⁻⁶ cm/s |  |  |  |  |  | 
10 | CC1=C(C#N)C(c2cc3c(C)n[nH]c3cc2F)C(C#N)=C(C(F)F)N1 (single isomer, unassigned) [Example 8, 2-(Difluoromethyl)-4-(6-fluoro-3-methyl-1H-indazol-5-yl)-6-methyl-1,4-dihydropyridine-3,5-dicarbonitrile] | 9 nM |  |  |  |  |  |  | 
11 | CCc1n[nH]c2ccc(C3C(C#N)=C(C(F)F)NC(C(F)F)=C3C#N)cc12 [Example 25, 2,6-Bis(difluoromethyl)-4-(3-ethyl-1H-indazol-5-yl)-1,4-dihydropyridine-3,5-dicarbonitrile] |  | 29 ×10⁻⁶ cm/s |  |  |  |  |  | 
12 | CC1=C(C#N)C(c2ccc3[nH]nc(C)c3c2)C(C#N)=C(C(F)(F)F)N1C (racemic) [Example 42, rac-1,2-Dimethyl-4-(3-methyl-1H-indazol-5-yl)-6-(trifluoromethyl)-1,4-dihydropyridine-3,5-dicarbonitrile] |  | 38.8 ×10⁻⁶ cm/s |  |  |  |  |  | 
13 | CC1=C(C#N)C(c2cc3cn[nH]c3cc2F)C(C#N)=C(C(F)(F)F)N1 (racemic) [Example 19, rac-4-(6-Fluoro-1H-indazol-5-yl)-2-methyl-6-(trifluoromethyl)-1,4-dihydropyridine-3,5-dicarbonitrile] |  |  | 36.5 mL/min/kg | 48% | 40% | 0.33 kg·h/L | 84% | 17.6 ×10⁻⁶ cm/s
14 | CC1=C(C#N)C(c2cc3c(C)n[nH]c3cc2F)C(C#N)=C(C(F)(F)F)N1 (single isomer, unassigned) [Example 12, 4-(6-Fluoro-3-methyl-1H-indazol-5-yl)-2-methyl-6-(trifluoromethyl)-1,4-dihydropyridine-3,5-dicarbonitrile] |  |  | 13.2 mL/min/kg | 81% | 48% | 1.1 kg·h/L | 59% | 18.7 ×10⁻⁶ cm/s
15 | CC1=C(C#N)C(c2ccc3[nH]nc(C)c3c2)C(C#N)=C(C(F)(F)F)N1C (single isomer, unassigned) [Example 43, 1,2-Dimethyl-4-(3-methyl-1H-indazol-5-yl)-6-(trifluoromethyl)-1,4-dihydropyridine-3,5-dicarbonitrile] | 9 nM |  |  |  |  |  |  | 
16 | Cc1n[nH]c2ccc(C3C(C#N)=C(C(F)F)NC(C(F)F)=C3C#N)cc12 [Example 13, 2,6-Bis(difluoromethyl)-4-(3-methyl-1H-indazol-5-yl)-1,4-dihydropyridine-3,5-dicarbonitrile] |  |  | 2.83 mL/min/kg | 96% | 70% | 6.16 kg·h/L | 73% | 39.3 ×10⁻⁶ cm/s
